# Test: Inhibition of lipase
row,SMILES,IC50
1,COc1cc(C(=O)OCc2ccc(O[C@@H]3O[C@H](COC(=O)/C=C/c4ccc(O)c(O)c4)[C@@H](O)[C@H](O)[C@H]3O)c(O)c2)ccc1O [LITSEAEFOLOSIDE C],0.31 µg/mL
2,COc1cc(C(=O)OCc2ccc(O[C@@H]3O[C@H](CO)[C@@H](O)[C@H](O)[C@H]3O)c(O)c2)ccc1O [VANILLOYL CALLERYANIN],> 100 µg/mL
3,COc1cc(C(=O)OCc2ccc(O[C@@H]3O[C@H](COC(C)=O)[C@@H](O)[C@H](O)[C@H]3O)c(O)c2)ccc1O [LITSEAEFOLOSIDE A],> 100 µg/mL

# Source: ChEMBL document CHEMBL1151270, “Phenolic and triterpene glycosides from the stems of Ilex litseaefolia” (J Nat Prod, 2005)
